Laboratory results taken from ChEMBL document CHEMBL1671652, “Efficacy of piperacillin combined with the Penem beta-lactamase inhibitor BLI-489 in murine models of systemic infection” (2009).
Values after ≈ are worked out from the molar mass of the structure shown.

Assays:
Pseudomonas aeruginosa [1] = test: Antimicrobial activity against AmpC beta-lactamase producing Pseudomonas aeruginosa GC 1764 by broth microdilution method; assay type: functional
Escherichia coli [2] = test: Antimicrobial activity against TEM-1 beta-lactamase producing Escherichia coli GC 6265 infected in CD-1 mouse treated 30 mins postinfection in presence of 14:1 ratio of compound to beta-lactamase inhibitor BLI-489; assay type: functional; conditions: GC 6265, 0.5 h
Escherichia coli [3] = test: Antimicrobial activity against ACT-1 beta-lactamase producing Escherichia coli GC 2814 by broth microdilution method in presence of 8:1 ratio of compound to beta-lactamase inhibitor BLI-489; assay type: functional
Escherichia coli [4] = test: Antimicrobial activity against ACT-1 beta-lactamase producing Escherichia coli GC 2814 infected in CD-1 mouse treated 30 and 150 mins postinfection in presence of beta-lactamase inhibitor Tazobactam; assay type: functional
Escherichia coli [5] = test: Antimicrobial activity against TEM-1 beta-lactamase producing Escherichia coli GC 6265 infected in CD-1 mouse treated 30 mins postinfection in presence of 8:1 ratio of compound to beta-lactamase inhibitor BLI-489; assay type: functional; conditions: GC 6265, 0.5 h
Salmonella typhimurium [6] = test: Antimicrobial activity against CTX-M-5 beta-lactamase producing Salmonella enterica serovar Typhimurium GC 4195 by broth microdilution method in presence of beta-lactamase inhibitor Tazobactam; assay type: functional, Salmonella enterica subsp. enterica serovar Typhimurium
Enterobacter cloacae [7] = test: Antimicrobial activity against AmpC beta-lactamase producing Enterobacter cloacae GC 4142 infected in CD-1 mouse treated 30 and 150 min postinfection in presence of 8:1 ratio of compound to beta-lactamase inhibitor BLI-489; assay type: functional
Enterobacter cloacae [8] = test: Antimicrobial activity against AmpC beta-lactamase producing Enterobacter cloacae GC 4142 infected in CD-1 mouse treated 30 and 150 min postinfection in presence of 10:1 ratio of compound to beta-lactamase inhibitor BLI-489; assay type: functional
Enterobacter cloacae [9] = test: Antimicrobial activity against AmpC beta-lactamase producing Enterobacter cloacae GC 4142 infected in CD-1 mouse treated 30 and 150 min postinfection in presence of 14:1 ratio of compound to beta-lactamase inhibitor BLI-489; assay type: functional
Escherichia coli [10] = test: Antimicrobial activity against ACT-1 beta-lactamase producing Escherichia coli GC 2814 infected in CD-1 mouse treated 30 and 150 mins postinfection; assay type: functional
Escherichia coli [11] = test: Antimicrobial activity against OXA-1 beta-lactamase producing Escherichia coli GAR 5946 infected in CD-1 mouse treated 30 and 150 mins postinfection; assay type: functional
Escherichia coli [12] = test: Antimicrobial activity against OXA-1 beta-lactamase producing Escherichia coli GAR 5946 infected in CD-1 mouse treated 30 and 150 mins postinfection in presence of beta-lactamase inhibitor Tazobactam; assay type: functional
Escherichia coli [13] = test: Antimicrobial activity against TEM-1 beta-lactamase producing Escherichia coli GC 6265 infected in CD-1 mouse treated 30 mins postinfection in presence of 4:1 ratio of compound to beta-lactamase inhibitor BLI-489; assay type: functional; conditions: GC 6265, 0.5 h
Klebsiella pneumoniae [14] = test: Antimicrobial activity against SHV-1and SHV-5 beta-lactamase producing Klebsiella pneumoniae GAR 7978 by broth microdilution method; assay type: functional
Escherichia coli [15] = test: Antimicrobial activity against TEM-1 beta-lactamase producing Escherichia coli GC 6265 infected in CD-1 mouse treated 30 mins postinfection in presence of 10:1 ratio of compound to beta-lactamase inhibitor BLI-489; assay type: functional; conditions: GC 6265, 0.5 h
Escherichia coli [16] = test: Antimicrobial activity against ACT-1 beta-lactamase producing Escherichia coli GC 2814 by broth microdilution method; assay type: functional
Enterobacter cloacae [17] = test: Antimicrobial activity against AmpC beta-lactamase producing Enterobacter cloacae GC 4142 infected in CD-1 mouse treated 30 and 150 mins postinfection in presence of beta-lactamase inhibitor Tazobactam; assay type: functional
Pseudomonas aeruginosa [18] = test: Antimicrobial activity against AmpC beta-lactamase producing Pseudomonas aeruginosa GC 1764 infected in CD-1 mouse treated 30 and 150 mins postinfection; assay type: functional
Staphylococcus aureus [19] = test: Antimicrobial activity against penicillinase producing Staphylococcus aureus GC 6468 infected in CD-1 mouse treated 30 and 150 mins postinfection in presence of beta-lactamase inhibitor Tazobactam; assay type: functional
Klebsiella pneumoniae [20] = test: Antimicrobial activity against SHV-1and SHV-5 beta-lactamase producing Klebsiella pneumoniae GAR 7978 by broth microdilution method in presence of 8:1 ratio of compound to beta-lactamase inhibitor BLI-489; assay type: functional
Enterobacter cloacae [21] = test: Antimicrobial activity against AmpC beta-lactamase producing Enterobacter cloacae GC 4142 infected in CD-1 mouse treated 30 and 150 min postinfection in presence of 4:1 ratio of compound to beta-lactamase inhibitor BLI-489; assay type: functional
Klebsiella pneumoniae [22] = test: Antimicrobial activity against SHV-1and SHV-5 beta-lactamase producing Klebsiella pneumoniae GAR 7978 infected in CD-1 mouse treated 30 and 150 mins postinfection in presence of beta-lactamase inhibitor Tazobactam; assay type: functional
Escherichia coli [23] = test: Antimicrobial activity against TEM-10 beta-lactamase producing Escherichia coli GC 2022 by broth microdilution method in presence of 8:1 ratio of compound to beta-lactamase inhibitor BLI-489; assay type: functional
Klebsiella pneumoniae [24] = test: Antimicrobial activity against SHV-11beta-lactamase producing Klebsiella pneumoniae GAR 7693 infected in CD-1 mouse treated 30 and 150 mins postinfection in presence of 8:1 ratio of compound to beta-lactamase inhibitor BLI-489; assay type: functional
Klebsiella pneumoniae [25] = test: Antimicrobial activity against SHV-11 beta-lactamase producing Klebsiella pneumoniae GAR 7693 by broth microdilution method in presence of 8:1 ratio of compound to beta-lactamase inhibitor BLI-489; assay type: functional
Staphylococcus aureus [26] = test: Antimicrobial activity against penicillinase producing Staphylococcus aureus GC 6468 by broth microdilution method in presence of 8:1 ratio of compound to beta-lactamase inhibitor BLI-489; assay type: functional
Escherichia coli [27] = test: Antimicrobial activity against OXA-1 beta-lactamase producing Escherichia coli GAR 5946 infected in CD-1 mouse treated 30 and 150 mins postinfection in presence of 8:1 ratio of compound to beta-lactamase inhibitor BLI-489; assay type: functional
Escherichia coli [28] = test: Antimicrobial activity against TEM-10 beta-lactamase producing Escherichia coli GC 2022 infected in CD-1 mouse treated 30 mins postinfection in presence of beta-lactamase inhibitor Tazobactam; assay type: functional; conditions: GC 2022, 0.5 h
Escherichia coli [29] = test: Antimicrobial activity against TEM-10 beta-lactamase producing Escherichia coli GC 2022 infected in CD-1 mouse treated 30 mins postinfection in presence of 8:1 ratio of compound to beta-lactamase inhibitor BLI-489; assay type: functional; conditions: GC 2022, 0.5 h
Staphylococcus aureus [30] = test: Antimicrobial activity against penicillinase producing Staphylococcus aureus GC 6468 by broth microdilution method in presence of beta-lactamase inhibitor Tazobactam; assay type: functional
Pseudomonas aeruginosa [31] = test: Antimicrobial activity against AmpC beta-lactamase producing Pseudomonas aeruginosa GC 1764 by broth microdilution method in presence of 8:1 ratio of compound to beta-lactamase inhibitor BLI-489; assay type: functional
Salmonella typhimurium [32] = test: Antimicrobial activity against CTX-M-5 beta-lactamase producing Salmonella enterica serovar Typhimurium GC 4195 infected in CD-1 mouse treated 30 and 150 mins postinfection; assay type: functional, Salmonella enterica subsp. enterica serovar Typhimurium
Escherichia coli [33] = test: Antimicrobial activity against TEM-1 beta-lactamase producing Escherichia coli GC 6265 infected in CD-1 mouse treated 30 mins postinfection in presence of 6:1 ratio of compound to beta-lactamase inhibitor BLI-489; assay type: functional; conditions: GC 6265, 0.5 h
Klebsiella pneumoniae [34] = test: Antimicrobial activity against SHV-11 beta-lactamase producing Klebsiella pneumoniae GAR 7693 by broth microdilution method in presence of beta-lactamase inhibitor Tazobactam; assay type: functional
Escherichia coli [35] = test: Antimicrobial activity against TEM-1 beta-lactamase producing Escherichia coli GC 6265 infected in CD-1 mouse treated 30 mins postinfection; assay type: functional; conditions: GC 6265, 0.5 h

## CCN1CCN(C(=O)N[C@@H](C(=O)N[C@@H]2C(=O)N3[C@@H]2SC(C)(C)[C@@H]3C(=O)O)c2ccccc2)C(=O)C1=O [PIPERACILLIN]
Pseudomonas aeruginosa [1]
  MIC: > 64 µg/mL
Escherichia coli [2]
  ED50: 16 mg/kg
Escherichia coli [3]
  MIC: > 64 µg/mL
Escherichia coli [4]
  ED50: 45 mg/kg
Escherichia coli [5]
  ED50: 12 mg/kg
Salmonella typhimurium [6]
  MIC: > 64 µg/mL
Enterobacter cloacae [7]
  ED50: 32 mg/kg
Enterobacter cloacae [8]
  ED50: 47 mg/kg
Enterobacter cloacae [9]
  ED50: 69 mg/kg
Escherichia coli [10]
  ED50: 103 mg/kg
Escherichia coli [11]
  ED50: 980 mg/kg
Escherichia coli [12]
  ED50: 270 mg/kg
Escherichia coli [13]
  ED50: 12 mg/kg
Klebsiella pneumoniae [14]
  MIC: > 64 µg/mL
Escherichia coli [15]
  ED50: 12 mg/kg
Escherichia coli [16]
  MIC: 2 µg/mL (≈ 3.86 µM)
Enterobacter cloacae [17]
  ED50: 71 mg/kg
Pseudomonas aeruginosa [18]
  ED50: 980 mg/kg
Staphylococcus aureus [19]
  ED50: 16 mg/kg
Klebsiella pneumoniae [20]
  MIC: 8 µg/mL
Enterobacter cloacae [21]
  ED50: 30 mg/kg
Klebsiella pneumoniae [22]
  ED50: 58 mg/kg
Escherichia coli [23]
  MIC: > 64 µg/mL
Klebsiella pneumoniae [24]
  ED50: 23 mg/kg
Klebsiella pneumoniae [25]
  MIC: > 64 µg/mL
Staphylococcus aureus [26]
  MIC: 1 µg/mL
Escherichia coli [27]
  ED50: 86 mg/kg
Escherichia coli [28]
  ED50: 25 mg/kg
Escherichia coli [29]
  ED50: 40 mg/kg
Staphylococcus aureus [30]
  MIC: 1 µg/mL
Pseudomonas aeruginosa [31]
  MIC: 4 µg/mL
Salmonella typhimurium [32]
  ED50: 1120 mg/kg
Escherichia coli [33]
  ED50: 12 mg/kg
Klebsiella pneumoniae [34]
  MIC: > 64 µg/mL
Escherichia coli [35]
  ED50: 176 mg/kg
